Entries after “also recorded” stand apart in the source; their conditions may differ. Where no end group is shown, it is not given here.
Legend:
β-wrapin AS10 [1] = settings: cited from earlier work
Description: We have previously observed β-hairpins in amyloid-β (Aβ), α-synuclein (αSyn), and islet amyloid polypeptide (IAPP), amyloidogenic proteins associated with AD, PD, and T2D, respectively (Fig. 2), [38], [39]. These β-hairpins are established upon binding to engineered binding proteins termed β-wrapins. β-Wrapins are selected from protein libraries based on ZAβ3, an affibody with high affinity for monomeric Aβ [37], [39], [40], [41], [42]. β-Hairpin structures of Aβ, αSyn and IAPP have been determined by NMR spectroscopy of their complexes with ZAβ3 and the β-wrapins AS69 and ...

[2] = Atomic force microscopy (AFM) of samples at the end of ThT aggregation assays; format: physicochemical
Procedure: (§1) For AFM imaging, 2 μl samples were taken out of the wells at the end of the ThT aggregation assays, put onto a freshly cleaved muscovite mica surface and dried during incubation for 10 min under the clean bench. Subsequently, the samples were washed with 100 μl ddH2O in three steps and dried with a stream of N2 gas. Imaging was performed in intermittent contact mode (AC mode) in a JPK NanoWizard 3 atomic force microscope using a silicon cantilever with silicon tip (OMCL-AC160TS-R3, Olympus) with a typical tip radius of 9 ± 2 nm, a force constant of 26 N/m and resonance frequency around 300 kHz. The images were processed using JPK DP Data Processing Software (version spm-5.0.84).

SEM1(86−107) = experiment: ThT aggregation assay and AFM of SEM1(86−107) in presence of added peptide; format: biochemical, human
Procedure: (§2) All ThT aggregation assays were done in Greiner 96-well half-area, clear bottom, low-binding plates. The measurements themselves were done in a BMG CLARIOstar plate reader at 37 °C and 300 rpm shaking in orbital mode with one glass bead (0.75–1 mm, Roth) per well. Wells with samples were always surrounded by wells filled with liquid, either other samples or 150 μl water, to counter potential artefacts due to evaporation. […] Final concentrations of 25 µM ThT and 0.04% sodium azide (NaN3) were added. The plate was sealed with sealing tape and put into the plate reader, heated to 37 °C, and ThT fluorescence was read in 1000 cycles of 300 s each using bottom optics with excitation at 448 nm (10 nm bandwidth) and emission at 482 nm (10 nm bandwidth). […] PAP(248−286) and SEM1(86−107) were kept at constant concentrations of 500 and 300 µM, respectively. […] Samples contained 40 µM ThT and 0.04% NaN3.
as §1

[3] = Thioflavin T (ThT) aggregation assay; format: physicochemical
Procedure: All ThT aggregation assays were done in Greiner 96-well half-area, clear bottom, low-binding plates. The measurements themselves were done in a BMG CLARIOstar plate reader at 37 °C and 300 rpm shaking in orbital mode with one glass bead (0.75–1 mm, Roth) per well. Wells with samples were always surrounded by wells filled with liquid, either other samples or 150 μl water, to counter potential artefacts due to evaporation. […] Final concentrations of 25 µM ThT and 0.04% sodium azide (NaN3) were added. The plate was sealed with sealing tape and put into the plate reader, heated to 37 °C, and ThT fluorescence was read in 1000 cycles of 300 s each using bottom optics with excitation at 448 nm (10 nm bandwidth) and emission at 482 nm (10 nm bandwidth). […] Samples contained 40 µM ThT and 0.04% NaN3.
Fig. 4 Test set of eight protein segments. (A) List of the investigated peptides. Underlined stretches in the peptide sequences correspond to the predicted amyloidogenic β-hairpins. A peptide was considered ‘soluble’ when no visible precipitation occurred upon dissolution of the lyophilized peptide in 20 mM NaPi, pH 7.4, 50 mM NaCl, to a final concentration of 20 µM. […] (B) Conformations of investigated segments (red) in the context of their source proteins.

β-wrapin AS10 [4] = experiment: Isothermal titration calorimetry (ITC) of peptide binding to AS10; settings: 30 °C, 30 µM AS10 in cell, peptide titrated from syringe, 20 mM sodium phosphate, pH 7.4, 50 mM NaCl, 1:1 binding model, read-out: Affinity to AS10 (dissociation constant KD)
Procedure: ITC was performed at 30 °C using a Microcal iTC200 calorimeter (GE Healthcare). AS10 was filled into the cell at a concentration of 30 µM in 20 mM sodium phosphate, pH 7.4, 50 mM NaCl. Peptides were titrated from the syringe in approximately 10-fold higher concentrations. Heats of post-saturation injections were averaged and subtracted from each injection to correct for heats of dilution and mixing. Dissociation constants were obtained from a nonlinear least-squares fit to a 1:1 binding model using MicroCal Origin.

PAP(248−286) = experiment: ThT aggregation assay and AFM of PAP(248−286) in presence of added peptide; format: biochemical, human
Procedure: as §2, §1

Substance | Affinity for β-wrapin AS10 (β-wrapin AS10 [1]) | AFM aggregate morphology ([2]; end of ThT aggregation assay in 20 mM NaPi, pH 7.4, 50 mM NaCl, dried on mica) | AFM aggregate morphology of individual peptide ([2]; end of ThT assay at moderate peptide concentrations without ThT fluorescence, 50 mM Tris, pH 8.5) | Effect of added peptide on ThT time trace of SEM1(86−107) (SEM1(86−107); 300 µM SEM1(86−107), added peptide 25–100 µM, 50 mM Tris, pH 8.5, 37 °C, 40 µM ThT) | AFM morphology after co-incubation with SEM1(86−107) (SEM1(86−107); AFM at end of aggregation assay, 300 µM SEM1(86−107) with PAP(185−208)) | ThT fluorescence time course ([3]; 20–25 µM peptide, 20 mM NaPi, pH 7.4, 50 mM NaCl, 37 °C, 25 µM ThT, triplicate) | Peptide concentration sufficient for amyloid formation ([3]; ThT assay, Fig. 5D (550 µM, 20 mM NaPi, pH 7.4, 50 mM NaCl)) | ThT ([3]; peptide 20–550 µM, up to 85 h, 20 mM NaPi, pH 7.4, 50 mM NaCl, 37 °C, 300 rpm, glass bead, 25 µM ThT, triplicate) | ThT fluorescence of peptide alone ([3]; peptide alone 25–100 µM (up to 100 µM), 50 mM Tris, pH 8.5, 37 °C, 40 µM ThT) | ThT fluorescence time course ([3]; peptide increased to 500–550 µM, 20 mM NaPi, pH 7.4, 50 mM NaCl, 37 °C, 25 µM ThT, triplicate) | Kd (β-wrapin AS10 [4]) | Effect of added peptide on ThT time trace of PAP(248−286) (PAP(248−286); 500 µM PAP(248−286), added peptide 25–100 µM, 50 mM Tris, pH 8.5, 37 °C, 40 µM ThT) | AFM morphology after co-incubation with PAP(248−286) (PAP(248−286); AFM at end of aggregation assay, 500 µM PAP(248−286) with PAP(185−208))
Aβ: amyloid-β, amyloidogenic protein associated with AD | sub-micromolar |  |  |  |  |  |  |  |  |  |  |  | 
IAPP: islet amyloid polypeptide, amyloidogenic protein associated with T2D (KCNTATCATQRLANFLVHSSNNFGAILSSTNVGSNTY; Islet amyloid polypeptide; UniProt P10997 34-70, looked up) | sub-micromolar |  |  |  |  |  |  |  |  |  |  |  | 
KDFIATLGKLSGLHGQDLFGIWSK [PAP(185−208)] |  | fibrillar aggregates confirming amyloid formation were detected | aggregates of amorphous shape | ThT time traces featuring a lag-time and a phase of rapid growth indicative of amyloid formation | shift to fibrillar aggregate morphology | no increase in fluorescence intensity was detected | > 0.5 mM | + | did not exhibit ThT fluorescence; also recorded: do not exhibit ThT fluorescene | exhibited ThT fluorescence | 39 ± 5 µM | ThT time traces featuring a lag-time and a phase of rapid growth indicative of amyloid formation | shift to fibrillar aggregate morphology

— article PMC10787225 (Computational and Structural Biotechnology Journal, 2023)
